Reference: ChEMBL document CHEMBL1136564, “Sordaricin antifungal agents” (2003)
Converted amounts (≈) assume the structure as drawn.

Columns and labels:
Candida albicans = test: Minimum inhibitory concentration to inhibit 90 to 100% visible growth of Candida albicans; format: functional
Nakaseomyces glabratus = test: Minimum inhibitory concentration required to inhibit 90 to 100% visible growth of Candida glabrata; format: functional

SMILES | MIC (Candida albicans) | MIC (Nakaseomyces glabratus)
CC(=O)CCC(=O)OCCC12CC3C(CC[C@H]3C)C3(C=O)CC1C=C(C(C)C)C32C(=O)O (some centres undefined) | 8 mg/L (≈ 18 µM) | > 128 mg/L
CC(=O)OCC(=O)OCCC12CC3C(CC[C@H]3C)C3(C=O)CC1C=C(C(C)C)C32C(=O)O (some centres undefined) | > 128 mg/L | > 128 mg/L
CC(C)C1=CC2CC3(C=O)C4CC[C@@H](C)C4CC2(CCOC(=O)CCC(=O)O)C13C(=O)O (some centres undefined) | < 128 mg/L | > 128 mg/L
CC(C)C1=CC2CC3(C=O)C4CC[C@@H](C)C4CC2(CCOC(=O)c2cc4ccccc4o2)C13C(=O)O (some centres undefined) | > 128 mg/L | > 128 mg/L
CC(C)C1=CC2CC3(C=O)C4CC[C@@H](C)C4CC2(CCOC(=O)c2cccnc2)C13C(=O)O (some centres undefined) | 16 mg/L (≈ 35.4 µM) | > 128 mg/L
CC(C)C1=CC2CC3(C=O)C4CC[C@@H](C)C4CC2(CCOC(=O)c2cccs2)C13C(=O)O (some centres undefined) | > 128 mg/L | > 128 mg/L
CC(C)C1=CC2CC3(C=O)C4CC[C@@H](C)C4CC2(CCOC(=O)[C@@H]2CCCN2C(=O)OC(C)(C)C)C13C(=O)O (some centres undefined) | 16 mg/L (≈ 29.4 µM) | 128 mg/L (≈ 235 µM)
CC(C)C1=CC2CC3(C=O)C4CC[C@@H](C)C4CC2(CCOC(=O)CCN2CCCCC2)C13C(=O)O (some centres undefined) | > 128 mg/L | > 128 mg/L
CC(C)C1=CC2CC3(C=O)C4CC[C@@H](C)C4CC2(CCOC(=O)C2CCN(C(=O)OC(C)(C)C)CC2)C13C(=O)O (some centres undefined) | 8 mg/L (≈ 14.3 µM) | > 128 mg/L
CC(C)C1=CC2CC3(C=O)[C@@H]4CC[C@@H](C)[C@H]4CC2(C(O)CCc2ccccc2)[C@]13C(=O)O (some centres undefined) | > 128 mg/L | > 128 mg/L
CC(C)C1=CC2CC3(C=O)C4CC[C@@H](C)C4CC2(CCOC(=O)[C@@H]2CCC(=O)N2)C13C(=O)O (some centres undefined) | > 128 mg/L | > 128 mg/L
CC(C)C1=CC2CC3(C=O)[C@@H]4CC[C@@H](C)[C@H]4CC2(C(=O)CCc2ccccc2)[C@]13C(=O)O | 16 mg/L (≈ 36.8 µM) | 8 mg/L (≈ 18.4 µM)
CC(C)C1=CC2CC3(C=O)C4CC[C@@H](C)C4CC2(CCOC(=O)c2cc[n+]([O-])cc2)C13C(=O)O (some centres undefined) | > 128 mg/L | > 128 mg/L
CC(C)C1=CC2CC3(C=O)C4CC[C@@H](C)C4CC2(CCOC(=O)c2ccco2)C13C(=O)O (some centres undefined) | 8 mg/L (≈ 18.2 µM) | > 128 mg/L
CC(C)C1=CC2CC3(C=O)C4CC[C@@H](C)C4CC2(CCOC(=O)c2ccc4[nH]cnc4c2)C13C(=O)O (some centres undefined) | > 128 mg/L | > 128 mg/L
CC(C)C1=CC2CC3(C=O)C4CC[C@@H](C)C4CC2(CCOC(=O)c2ccc(Br)cc2)C13C(=O)O (some centres undefined) | > 128 mg/L | > 128 mg/L
CCCCCCCCCCCCCCCCC(=O)C12C[C@@H]3[C@H](C)CC[C@H]3C3(C=O)CC1C=C(C(C)C)[C@@]23C(=O)O | > 128 mg/L | > 128 mg/L
CC(C)C1=CC2CC3(C=O)C4CC[C@@H](C)C4CC2(CCOC(=O)c2nccc4ccccc24)C13C(=O)O (some centres undefined) | > 128 mg/L | > 128 mg/L
CC(C)C1=CC2CC3(C=O)C4CC[C@@H](C)C4CC2(CCOC(=O)CCNC(=O)OC(C)(C)C)C13C(=O)O (some centres undefined) | 64 mg/L (≈ 124 µM) | > 128 mg/L
CC(C)C1=CC2CC3(C=O)C4CC[C@@H](C)C4CC2(CCOC(=O)c2cccc(C(=O)O)n2)C13C(=O)O (some centres undefined) | > 128 mg/L | > 128 mg/L

Second part, the molecule after the results:

MIC (Candida albicans) | MIC (Nakaseomyces glabratus) | SMILES
< 0.06 mg/L | 4 mg/L (≈ 9 µM) | CC(C)C1=CC2CC3(C=O)C4CC[C@@H](C)C4CC2(CCOC(=O)CC(C)(C)C)C13C(=O)O (some centres undefined)
0.5 mg/L (≈ 1.17 µM) | 8 mg/L (≈ 18.7 µM) | CC(C)C1=CC2CC3(C=O)C4CC[C@@H](C)C4CC2(CCOC(=O)C2CCC2)C13C(=O)O (some centres undefined)
4 mg/L (≈ 8.39 µM) | > 128 mg/L | C=Cc1ccc(C(=O)OCCC23CC4C(CC[C@H]4C)C4(C=O)CC2C=C(C(C)C)C43C(=O)O)cc1 (some centres undefined)
< 0.06 mg/L | 8 mg/L (≈ 17.5 µM) | CC(C)C1=CC2CC3(C=O)C4CC[C@@H](C)C4CC2(CCOC(=O)C2CCCCC2)C13C(=O)O (some centres undefined)
2 mg/L (≈ 3.75 µM) | 64 mg/L (≈ 120 µM) | CC(C)C1=CC2CC3(C=O)C4CC[C@@H](C)C4CC2(CCOC(=O)Cc2ccc(Br)o2)C13C(=O)O (some centres undefined)
4 mg/L (≈ 8.25 µM) | > 128 mg/L | CC(C)C1=CC2CC3(C=O)C4CC[C@@H](C)C4CC2(CCOC(=O)c2ccc(Cl)cc2)C13C(=O)O (some centres undefined)
0.25 mg/L (≈ 0.578 µM) | 8 mg/L (≈ 18.5 µM) | CC(C)C1=CC2CC3(C=O)[C@@H]4CC[C@@H](C)[C@H]4CC2(C(O)C#Cc2ccccc2)[C@]13C(=O)O (some centres undefined)
1 mg/L (≈ 1.97 µM) | > 128 mg/L | CC(C)C1=CC2CC3(C=O)C4CC[C@@H](C)C4CC2(CCOC(=O)Cc2ccc(N(C)C)cc2)C13C(=O)O (some centres undefined)
2 mg/L (≈ 4.04 µM) | > 128 mg/L | CC(C)C1=CC2CC3(C=O)C4CC[C@@H](C)C4CC2(CCOC(=O)c2ccc4c(c2)OCO4)C13C(=O)O (some centres undefined)
1 mg/L (≈ 2.1 µM) | > 128 mg/L | CC(C)C1=CC2CC3(C=O)C4CC[C@@H](C)C4CC2(CCOC(=O)c2cccc(C#N)c2)C13C(=O)O (some centres undefined)
0.125 mg/L (≈ 0.282 µM) | 4 mg/L (≈ 9.04 µM) | CC(C)C1=CC2CC3(C=O)C4CC[C@@H](C)C4CC2(CCOC(=O)C2CCCC2)C13C(=O)O (some centres undefined)
2 mg/L (≈ 4.4 µM) | 64 mg/L (≈ 141 µM) | CC(C)C1=CC2CC3(C=O)C4CC[C@@H](C)C4CC2(CCOC(=O)Cc2ccco2)C13C(=O)O (some centres undefined)
